Experimental data from patent publication US20240115549A1, “TREATMENT OF MENTAL DISORDERS” (GH Research Ireland Limited, priority 2022, published 2024).
“Also recorded” adds a separate entry of the source.

Assays:
[1] = tested on: human plasma protein; experiment: Plasma binding of 5-MIAA; assay type: in vitro ADME
Experimental: Binding to human plasma protein was determined. Reported are the unbound fraction (fu) for three replicates as well as the mean unbound fraction, the standard deviation and the mean % recovery (Table 8).

[2] = tested on: human hepatocytes; experiment: Metabolic stability in Hprel human hepatocyte co-culture; assay type: in vitro ADME; settings: for Half-life / In vitro intrinsic clearance: human hepatocytes, 1 μM; for Predicted hepatic extraction ratio: human, Hprel HumanPool human hepatocyte co-culture; for Disappearance with stromal cell controls: stromal cells
Experimental: The incubations were performed using 1 and 10 μM initial concentrations and sampling at 0, 1, 2, 4, 8, 24, 48, and 72 hours (h) time points. The samples were analysed using UPLC/QE-orbitrap-MS.
The remaining LC/MS peak areas detected for test compounds after each incubation time point with Hprel co-culture assay, relative to corresponding 0 min incubation samples, are shown in the tables below.

[3] = LC-MS/MS of 5-MeO-DMT, bufotenine and 5-MIAA in breastmilk, serum and urine of a treated PPD patient; infant dose estimates
[4] = tested on: human hepatocytes; experiment: Metabolism of 5-MeO-DMT in human hepatocytes in suspension; assay type: in vitro ADME; settings: 5-MeO-DMT free base 10 μM incubated up to 120 minutes
Experimental: All samples were stored at −80° C. (nominal) prior to analysis.
Appropriate blank and control samples were also analysed. […] (nominal).

[5] = 5 kg infant, three feeds of 250 ml
[6] = 1.0 hrs after last dose, second PPD patient, inhaled 5-MeO-DMT, LC-MS/MS
[7] = 2.5 hrs after last dose, second PPD patient, inhaled 5-MeO-DMT, LC-MS/MS
[8] = 8.5 hrs after last dose, second PPD patient, inhaled 5-MeO-DMT, LC-MS/MS
[9] = 120.0 hrs after last dose, second PPD patient, inhaled 5-MeO-DMT, LC-MS/MS
[10] = timepoint −24.0 hrs (pre-dosing), second PPD patient, inhaled 5-MeO-DMT 6 mg then 12 mg, LC-MS/MS
[11] = serum, 1.0 hrs after last dose, second PPD patient, inhaled 5-MeO-DMT, LC-MS/MS
[12] = urine, 2.5 hrs after last dose, second PPD patient, inhaled 5-MeO-DMT, LC-MS/MS

Compound: COc1ccc2[nH]cc(CC(=O)O)c2c1 [5-MIAA, 5-methoxyindole-3-acetic acid]
- Mean % Recovery [1]: 81.4%
- Mean fu [1]: 0.502
- Plasma binding (mean fraction unbound) [1]: ~50%
- Unbound fraction (fu), Replicate 1 [1]: 0.499
- Unbound fraction (fu), Replicate 2 [1]: 0.462
- Unbound fraction (fu), Replicate 3 [1]: 0.544
- Relative LC/MS peak area ([2]; 1 μM Hepatocytes, 1 h): 98%
- Relative LC/MS peak area ([2]; 1 μM Hepatocytes, 2 h): 100%
- Relative LC/MS peak area ([2]; 1 μM Hepatocytes, 4 h): 99%
- Relative LC/MS peak area ([2]; 1 μM Hepatocytes, 8 h): 95%
- Relative LC/MS peak area ([2]; 1 μM Hepatocytes, 24 h): 99%
- Relative LC/MS peak area ([2]; 1 μM Hepatocytes, 48 h): 88%
- Relative LC/MS peak area ([2]; 1 μM Hepatocytes, 72 h): 82%
- Relative LC/MS peak area ([2]; 1 μM Stromal cells, 4 h): 103%
- Relative LC/MS peak area ([2]; 1 μM Stromal cells, 8 h): 107%
- Relative LC/MS peak area ([2]; 1 μM Stromal cells, 24 h): 108%
- Relative LC/MS peak area ([2]; 1 μM Stromal cells, 48 h): 111%
- Relative LC/MS peak area ([2]; 1 μM Stromal cells, 72 h): 135%
- Relative LC/MS peak area ([2]; 10 μM Hepatocytes, 1 h): 97%
- Relative LC/MS peak area ([2]; 10 μM Hepatocytes, 2 h): 100%
- Relative LC/MS peak area ([2]; 10 μM Hepatocytes, 4 h): 103%
- Relative LC/MS peak area ([2]; 10 μM Hepatocytes, 8 h): 96%
- Relative LC/MS peak area ([2]; 10 μM Hepatocytes, 24 h): 96%
- Relative LC/MS peak area ([2]; 10 μM Hepatocytes, 48 h): 86%
- Relative LC/MS peak area ([2]; 10 μM Hepatocytes, 72 h): 75%
- Relative LC/MS peak area ([2]; 10 μM Stromal cells, 4 h): 101%
- Relative LC/MS peak area ([2]; 10 μM Stromal cells, 8 h): 106%
- Relative LC/MS peak area ([2]; 10 μM Stromal cells, 24 h): 97%
- Relative LC/MS peak area ([2]; 10 μM Stromal cells, 48 h): 103%
- Relative LC/MS peak area ([2]; 10 μM Stromal cells, 72 h): 115%
- Remaining abundance after 72 h ([2]; hepatocytes, 1 and 10 μM): 75-82%
- Half-life [2]: 15 400 min
- In vitro intrinsic clearance [2]: 0.15 μl/min/million cells
- Predicted hepatic extraction ratio [2]: 2%
- Metabolic turnover ([2]; in the presence of hepatocytes): low metabolic turnover
- Disappearance with stromal cell controls [2]: no disappearance
- DID per kg infant weight [3, 5]: 0.001377 mg/kg/day
- Total exposure of the infant (DID) [3, 5]: 0.006886 mg/day
- Concentration in breast milk ([3]; 1 hour after last dose (6 mg + 12 mg 5-MeO-DMT)): 13.9452 ng/mL
- Peak urine concentration relative to serum ([3]; 2.5 hours): approx. 127 times
- Concentration in breast milk ([3]; 2.5 hours after last dose): 13.2409 ng/mL
- Urine concentration ([3]; 2.5 hours after last dose): 12 980 501 pg/ml
- Concentration in breast milk ([3]; 8.5 hours after last dose): 0.3594 ng/mL
- Breastmilk concentration [3, 6]: 13945.2 pg/mL
- Breastmilk concentration [3, 7]: 13240.9 pg/mL
- Breastmilk concentration [3, 8]: 359.4 pg/mL
- Breastmilk concentration [3, 9]: BLQ
- Breastmilk concentration [3, 10]: BLQ
- concentration at 24 h ([3]; female, human, breast milk, inhaled): 0.0355 ng/mL
- concentration at 2.5 h ([3]; female, human, serum, inhaled): 102 ng/mL
- concentration at 24 h ([3]; female, human, serum, inhaled): 0.271 ng/mL
- concentration at 120 h ([3]; female, human, serum, inhaled): 0.0671 ng/mL
- concentration at 2.5 h ([3]; female, human, urine, inhaled): ~13000 ng/mL
- concentration at 8.5 h ([3]; female, human, urine, inhaled): 292 ng/mL
- concentration at 24 h ([3]; female, human, urine, inhaled): 18.6 ng/mL
- concentration at 120 h ([3]; female, human, urine, inhaled): 9.44 ng/mL
- Serum concentration [3, 11]: 263.092 ng/mL
- Urine concentration [3, 12]: 12980501 pg/mL
- Relative Proportion of compounds identified [4]: about 60%
- Relative Proportion of compounds identified ([4]; listed as 5-Methoxyindole acetic acid (5-MIAA)): 61%

Compound: COc1ccc2[nH]cc(CC[N+](C)(C)[O-])c2c1 [5-MeO-DMT-N-oxide]
- Relative Proportion of compounds identified [4]: 1%

Compound: COc1ccc2[nH]cc(CCO)c2c1 [5-methoxytryptophol, 5-Methoxyindole-3-ethanol]
- Relative LC/MS peak area ([2]; 1 μM Hepatocytes, 1 h): 79%
- Relative LC/MS peak area ([2]; 1 μM Hepatocytes, 2 h): 57%
- Relative LC/MS peak area ([2]; 1 μM Hepatocytes, 4 h): 33%
- Relative LC/MS peak area ([2]; 1 μM Hepatocytes, 8 h): 10%
- Relative LC/MS peak area ([2]; 1 μM Hepatocytes, 24 h): 0%
- Relative LC/MS peak area ([2]; 1 μM Hepatocytes, 48 h): 0%
- Relative LC/MS peak area ([2]; 1 μM Hepatocytes, 72 h): 0%
- Relative LC/MS peak area ([2]; 1 μM Stromal cells, 4 h): 97%
- Relative LC/MS peak area ([2]; 1 μM Stromal cells, 8 h): 107%
- Relative LC/MS peak area ([2]; 1 μM Stromal cells, 24 h): 94%
- Relative LC/MS peak area ([2]; 1 μM Stromal cells, 48 h): 102%
- Relative LC/MS peak area ([2]; 1 μM Stromal cells, 72 h): 104%
- Relative LC/MS peak area ([2]; 10 μM Hepatocytes, 1 h): 87%
- Relative LC/MS peak area ([2]; 10 μM Hepatocytes, 2 h): 81%
- Relative LC/MS peak area ([2]; 10 μM Hepatocytes, 4 h): 68%
- Relative LC/MS peak area ([2]; 10 μM Hepatocytes, 8 h): 42%
- Relative LC/MS peak area ([2]; 10 μM Hepatocytes, 24 h): 1%
- Relative LC/MS peak area ([2]; 10 μM Hepatocytes, 48 h): 0%
- Relative LC/MS peak area ([2]; 10 μM Hepatocytes, 72 h): 0%
- Relative LC/MS peak area ([2]; 10 μM Stromal cells, 4 h): 99%
- Relative LC/MS peak area ([2]; 10 μM Stromal cells, 8 h): 105%
- Relative LC/MS peak area ([2]; 10 μM Stromal cells, 24 h): 86%
- Relative LC/MS peak area ([2]; 10 μM Stromal cells, 48 h): 98%
- Relative LC/MS peak area ([2]; 10 μM Stromal cells, 72 h): 104%
- Half-life [2]: 142 min
- In vitro intrinsic clearance [2]: 16.2 μl/min/million cells
- Predicted hepatic extraction ratio [2]: 67%
- Metabolic turnover ([2]; in the presence of hepatocytes): high metabolic turnover
- Time to complete disappearance ([2]; in the presence of hepatocytes): ≤ 24 h
- Disappearance with stromal cell controls [2]: no disappearance
- Relative Proportion of compounds identified [4]: 25%

Compound: CC(=O)CC(c1ccccc1)c1c(O)c2ccccc2oc1=O (centres unmarked) [Warfarin, reference compound]
- Mean % Recovery [1]: 78.1%
- Mean fu [1]: 0.0377
- Unbound fraction (fu), Replicate 1 [1]: 0.0418
- Unbound fraction (fu), Replicate 2 [1]: 0.0356
- Unbound fraction (fu), Replicate 3 [1]: 0.0358

Compound: CN(C)CCc1c[nH]c2ccc(O)cc12 [bufotenine]
- Detection in breastmilk ([3]; any time point): not detected; also recorded: absence
- Detection in serum ([3]; any time point): not detected
- Breastmilk concentration [3, 6]: BLQ
- Breastmilk concentration [3, 7]: BLQ
- Breastmilk concentration [3, 8]: BLQ
- Breastmilk concentration ([3]; 24.0 hrs after last dose, second PPD patient, inhaled 5-MeO-DMT, LC-MS/MS): BLQ
- Breastmilk concentration [3, 9]: BLQ
- Breastmilk concentration [3, 10]: BLQ
- Serum concentration [3, 11]: BLQ
- Serum concentration ([3]; serum, 2.5 hrs after last dose, second PPD patient, inhaled 5-MeO-DMT, LC-MS/MS): BLQ
- Serum concentration ([3]; serum, 24.0 hrs after last dose, second PPD patient, inhaled 5-MeO-DMT, LC-MS/MS): BLQ
- Serum concentration ([3]; serum, 120.0 hrs after last dose, second PPD patient, inhaled 5-MeO-DMT, LC-MS/MS): BLQ
- Serum concentration ([3]; serum, timepoint −24.0 hrs (pre-dosing), second PPD patient, inhaled 5-MeO-DMT 6 mg then 12 mg, LC-MS/MS): BLQ
- Urine concentration [3, 12]: 32.3 pg/mL
- Urine concentration ([3]; urine, 8.5 hrs after last dose, second PPD patient, inhaled 5-MeO-DMT, LC-MS/MS): BLQ
- Urine concentration ([3]; urine, 24.0 hrs after last dose, second PPD patient, inhaled 5-MeO-DMT, LC-MS/MS): BLQ
- Urine concentration ([3]; urine, 120.0 hrs after last dose, second PPD patient, inhaled 5-MeO-DMT, LC-MS/MS): BLQ
- Urine concentration ([3]; urine, timepoint −24.0 hrs (pre-dosing), second PPD patient, inhaled 5-MeO-DMT 6 mg then 12 mg, LC-MS/MS): BLQ
- Relative Proportion of compounds identified [4]: 5%
